For 28 molecules, AC40 results are on record in PubChem BioAssay AID651771 (Broad Institute, 2012).

Structures are written as SMILES. Values joined by “and” are separate entries in the source; they are usually repeats but may differ in a detail not shown here. Equal entries are not always repeated. Records with an inconclusive call do not appear.

The test system of the test is SK-MEL-5 DCT mRNA qPCR, delta-delta-Ct, overnight. As to the kind of experiment: suppression of MITF target gene DCT mRNA, dose response, orthogonal assay for MITF inhibitor project, cell-based, SK-MEL-5, RT-qPCR, dry powder samples (AID 651771).
As to `CN1CCN(C2=C(NS(=O)(=O)c3ccc(Br)s3)C(=O)c3ccccc3C2=O)CC1`, the AC40 was 1680 nM.

As to `O=C1C=C(Nc2ccc([N+](=O)[O-])c(C(F)(F)F)c2)C(=O)c2ccccc21`, the AC40 is 1050 nM.

Turning to `NC1=C(NC(=O)c2ccccc2)C(=O)c2ccccc2C1=O`, the AC40 was 1730 nM.

As to `COc1ccc(NC2=C(N3CCCCC3)C(=O)c3ccccc3C2=O)cc1`, the AC40 is 12800 nM.

On to `COC1=C(Nc2ccccc2)C(=O)c2ccccc2C1=O`, for which the AC40 is 838 nM.

With `NC1=C(NS(=O)(=O)c2ccccc2)C(=O)c2ccccc2C1=O`, the AC40 is 3020 nM.

As to `O=C1C=C(NS(=O)(=O)c2ccccc2)C(=O)c2ccccc21`, the AC40 is 4060 nM.

`NC1=C(NS(=O)(=O)c2cccs2)C(=O)c2ccccc2C1=O`: the AC40 is 2010 nM.

With `COC1=C(NS(=O)(=O)c2ccc(Br)cc2)C(=O)c2ccccc2C1=O`, the AC40 was 8650 nM.

For `O=C(NC1=C(Cl)C(=O)c2ccccc2C1=O)c1ccccc1`, the AC40 was 336 nM.

Turning to `CC(C)N1CCN(C2=C(Nc3ccc(F)cc3)C(=O)c3ccccc3C2=O)CC1`, the AC40 is 2900 nM.

Regarding `O=C1C(Nc2ccccc2)=C(c2ccccc2)C(=O)c2ccccc21`, the AC40 was 10400 nM.

For the molecule `Cc1nc2ccccc2n1/N=C/c1ccc([N+](=O)[O-])s1`, the AC40 is 1540 nM.

As for `C=CCNC1=C(Cl)C(=O)c2ccccc2C1=O`, the AC40 was 1000 nM.

For the molecule `O=C1C(Nc2ccc(Br)cc2)=C(N2CCCCC2)C(=O)c2ccccc21`, the AC40 was 12600 nM.

Consider `O=C1C=C(NS(=O)(=O)c2ccc(Br)cc2)C(=O)c2ccccc21`, for which the AC40 is 7250 nM.

For `O=C1C=C(NS(=O)(=O)c2cccs2)C(=O)c2ccccc21`, the AC40 is 4640 nM.

Consider `NS(=O)(=O)c1ccc(NC2=CC(=O)c3ccccc3C2=O)cc1`, for which the AC40 was 55.5 nM.

With `CCN1CCN(C2=C(NS(=O)(=O)c3ccc(Br)cc3)C(=O)c3ccccc3C2=O)CC1`, the AC40 was 3380 nM.

On to `Cc1ccc(NC2=CC(=O)c3ccccc3C2=O)cc1`, for which the AC40 was 277 nM.

Take `O=C1C=C(Nc2ccccc2)C(=O)c2ccccc21`: the AC40 is 302 nM and 325 nM.

As for `O=C1C(Nc2ccc(Cl)cc2)=C(N2CCCC2)C(=O)c2ccccc21`, the AC40 was 9530 nM.

`COC1=C(NS(=O)(=O)c2cccs2)C(=O)c2ccccc2C1=O`: the AC40 is 9010 nM.

Regarding `CCN1CCN(C2=C(NC(=O)c3ccccc3)C(=O)c3ccccc3C2=O)CC1`, the AC40 was 884 nM.

Take `CCN1CCN(C2=C(Nc3ccc(F)cc3F)C(=O)c3ccccc3C2=O)CC1`: the AC40 was 4780 nM.

As for `NC1=C(NS(=O)(=O)c2ccc(Br)cc2)C(=O)c2ccccc2C1=O`, the AC40 is 12800 nM.

On to `CC(C)N1CCN(C2=C(Nc3ccc(F)cc3F)C(=O)c3ccccc3C2=O)CC1`, for which the AC40 was 3670 nM.

In the case of `NC1=CC(=O)c2ccccc2C1=O`, the AC40 was 966 nM.
